Measurements as given in the supplement of paper PMC11451515.

Tests used:
Settings in all cases: 48 h
P12-Ichikawa [1] = experiment: AUC of viability dose-response curve (% viability x log10 dose units); higher = less sensitive
How it was run: (§1)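 Viability of medium-adapted leukemia cells was measured by CellTiter-Glo One luminescence after 48 h at 37°C with library compounds in DMSO. Doses were 11 threefold steps from 47 μM to 0.79 nM, in 1536-well plates at 500 or 1000 cells/well. Signals were normalised per plate to DMSO and cell-free wells and fitted with a four-parameter log-logistic model on log10 dose. Area under the curve was integrated by trapezoidal rule, with curves exceeding full viability scaled and failed quality-control curves removed.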

SEM cells [2] = experiment: as above
How it was run: as §1

NOMO1 [3] = experiment: as above
How it was run: as §1

P12-Ichikawa [4] = experiment: cell viability relative to DMSO control; higher = less cytotoxic
How it was run: (§2)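 In 1536-well plates, 5 μl of leukemia cells were seeded per well: 500 cells/well for NOMO1 or SEM and 1000 cells/well for P12-Ichikawa. Each line had first been adapted for at least four passages in each medium. Library compounds in DMSO were pin-dosed at 11 threefold concentrations between 47 μM and 0.79 nM, and CellTiter-Glo One luminescence was read after 48 h at 37°C. Viability is a per-plate percentage relative to DMSO wells, with cell-free wells as background.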

SEM cells [5] = experiment: as above
How it was run: as §2

NOMO1 [6] = experiment: as above
How it was run: as §2

Cn1cc(C[C@@H](N)C(=O)O)c2ccccc21
AUC of viability dose-response curve
Settings | NOMO1 [3] | P12-Ichikawa [1] | SEM cells [2]
HPLM + 10% dialyzed FBS | 449 | 467 | 461
RPMI 5 mM glucose + 10% FBS | 448 | 472 | 406
RPMI 5 mM glucose + 10% dialyzed FBS | 440 | 469 | 467

cell viability [%]
Settings | NOMO1 [6] | P12-Ichikawa [4] | SEM cells [5]
HPLM + 10% dialyzed FBS, 0.000781 µM | 107 | 103 | 92
HPLM + 10% dialyzed FBS, 0.00234 µM | 106 | 109 | 105
HPLM + 10% dialyzed FBS, 0.00702 µM | 108 | 106 | 95.8
HPLM + 10% dialyzed FBS, 0.0211 µM | 106 | 104 | 113
HPLM + 10% dialyzed FBS, 0.0632 µM | 92.4 | 105 | 112
HPLM + 10% dialyzed FBS, 0.19 µM | 111 | 109 | 121
HPLM + 10% dialyzed FBS, 0.569 µM | 100 | 105 | 112
HPLM + 10% dialyzed FBS, 1.71 µM | 101 | 102 | 111
HPLM + 10% dialyzed FBS, 5.12 µM | 101 | 100 | 101
HPLM + 10% dialyzed FBS, 15.4 µM | 90.8 | 98.2 | 92.3
HPLM + 10% dialyzed FBS, 46.1 µM | 94.9 | 97.2 | 76.7
RPMI 5 mM glucose + 10% FBS, 0.000781 µM | 90.4 | 98.8 | 80
RPMI 5 mM glucose + 10% FBS, 0.00234 µM | 90.7 | 107 | 50.1
RPMI 5 mM glucose + 10% FBS, 0.00702 µM | 96.5 | 104 | 79.6
RPMI 5 mM glucose + 10% FBS, 0.0211 µM | 107 | 101 | 94
RPMI 5 mM glucose + 10% FBS, 0.0632 µM | 89.6 | 99.6 | 89.8
RPMI 5 mM glucose + 10% FBS, 0.19 µM | 95.1 | 106 | 96.4
RPMI 5 mM glucose + 10% FBS, 0.569 µM | 95.6 | 107 | 91.1
RPMI 5 mM glucose + 10% FBS, 1.71 µM | 95.5 | 97.1 | 97.9
RPMI 5 mM glucose + 10% FBS, 5.12 µM | 92.6 | 99.8 | 107
RPMI 5 mM glucose + 10% FBS, 15.4 µM | 97.9 | 100 | 80.9
RPMI 5 mM glucose + 10% FBS, 46.1 µM | 81.2 | 87.1 | 62.7
RPMI 5 mM glucose + 10% dialyzed FBS, 0.000781 µM | 90 | 91.3 | 114
RPMI 5 mM glucose + 10% dialyzed FBS, 0.00234 µM | 90.1 | 101 | 92.1
RPMI 5 mM glucose + 10% dialyzed FBS, 0.00702 µM | 93.4 | 100 | 102
RPMI 5 mM glucose + 10% dialyzed FBS, 0.0211 µM | 94 | 98.3 | 106
RPMI 5 mM glucose + 10% dialyzed FBS, 0.0632 µM | 101 | 105 | 97.7
RPMI 5 mM glucose + 10% dialyzed FBS, 0.19 µM | 98.9 | 106 | 108
RPMI 5 mM glucose + 10% dialyzed FBS, 0.569 µM | 93.8 | 96.5 | 98.8
RPMI 5 mM glucose + 10% dialyzed FBS, 1.71 µM | 88.9 | 100 | 97
RPMI 5 mM glucose + 10% dialyzed FBS, 5.12 µM | 93.3 | 95.8 | 102
RPMI 5 mM glucose + 10% dialyzed FBS, 15.4 µM | 87 | 93 | 96.3
RPMI 5 mM glucose + 10% dialyzed FBS, 46.1 µM | 76.7 | 91.9 | 70

Cc1noc(-c2ccc(CSCCC(=O)O)cc2)c1NC(=O)OC(C)c1ccccc1Cl (stereo not drawn)
AUC of viability dose-response curve
Settings | NOMO1 [3] | P12-Ichikawa [1] | SEM cells [2]
HPLM + 10% dialyzed FBS | 468 | 464 | 453
RPMI 5 mM glucose + 10% FBS | 457 | 428 | 433
RPMI 5 mM glucose + 10% dialyzed FBS | 432 | 437 | 471

cell viability [%]
Settings | NOMO1 [6] | P12-Ichikawa [4] | SEM cells [5]
HPLM + 10% dialyzed FBS, 0.000781 µM | 92.3 | 98.3 | 95.3
HPLM + 10% dialyzed FBS, 0.00234 µM | 89.9 | 99.3 | 95.1
HPLM + 10% dialyzed FBS, 0.00702 µM | 105 | 97.1 | 99.2
HPLM + 10% dialyzed FBS, 0.0211 µM | 104 | 102 | 89.3
HPLM + 10% dialyzed FBS, 0.0632 µM | 99.8 | 95.4 | 88.4
HPLM + 10% dialyzed FBS, 0.19 µM | 97.1 | 101 | 97
HPLM + 10% dialyzed FBS, 0.569 µM | 95.6 | 101 | 99.7
HPLM + 10% dialyzed FBS, 1.71 µM | 97 | 107 | 89.3
HPLM + 10% dialyzed FBS, 5.12 µM | 113 | 99 | 97.1
HPLM + 10% dialyzed FBS, 15.4 µM | 111 | 88.6 | 98.7
HPLM + 10% dialyzed FBS, 46.1 µM | 95.7 | 70.2 | 95.6
RPMI 5 mM glucose + 10% FBS, 0.000781 µM | 85.7 | 88.3 | 99.9
RPMI 5 mM glucose + 10% FBS, 0.00234 µM | 97.5 | 89.1 | 98.8
RPMI 5 mM glucose + 10% FBS, 0.00702 µM | 99 | 80.9 | 82.5
RPMI 5 mM glucose + 10% FBS, 0.0211 µM | 89.6 | 87.4 | 94.5
RPMI 5 mM glucose + 10% FBS, 0.0632 µM | 109 | 86.4 | 83.9
RPMI 5 mM glucose + 10% FBS, 0.19 µM | 95.4 | 95.7 | 100
RPMI 5 mM glucose + 10% FBS, 0.569 µM | 102 | 97.3 | 96.2
RPMI 5 mM glucose + 10% FBS, 1.71 µM | 100 | 94.7 | 70.3
RPMI 5 mM glucose + 10% FBS, 5.12 µM | 95.5 | 93.1 | 101
RPMI 5 mM glucose + 10% FBS, 15.4 µM | 110 | 87.3 | 89.7
RPMI 5 mM glucose + 10% FBS, 46.1 µM | 105 | 85.3 | 81.3
RPMI 5 mM glucose + 10% dialyzed FBS, 0.000781 µM | 79 | 90.3 | 90
RPMI 5 mM glucose + 10% dialyzed FBS, 0.00234 µM | 99.1 | 90 | 108
RPMI 5 mM glucose + 10% dialyzed FBS, 0.00702 µM | 87.3 | 91.7 | 104
RPMI 5 mM glucose + 10% dialyzed FBS, 0.0211 µM | 86.3 | 96.7 | 115
RPMI 5 mM glucose + 10% dialyzed FBS, 0.0632 µM | 99.1 | 91.6 | 97
RPMI 5 mM glucose + 10% dialyzed FBS, 0.19 µM | 92.2 | 102 | 115
RPMI 5 mM glucose + 10% dialyzed FBS, 0.569 µM | 99.5 | 84.8 | 101
RPMI 5 mM glucose + 10% dialyzed FBS, 1.71 µM | 95.8 | 89.1 | 69.3
RPMI 5 mM glucose + 10% dialyzed FBS, 5.12 µM | 100 | 97.9 | 117
RPMI 5 mM glucose + 10% dialyzed FBS, 15.4 µM | 104 | 89.3 | 114
RPMI 5 mM glucose + 10% dialyzed FBS, 46.1 µM | 107 | 79.5 | 88.3

OC(CN1CCN(c2cccc(Cl)c2)CC1)C(c1ccccc1)c1ccccc1 (stereo not drawn)
AUC of viability dose-response curve
Settings | NOMO1 [3] | P12-Ichikawa [1] | SEM cells [2]
HPLM + 10% dialyzed FBS | 265 | 238 | 319
RPMI 5 mM glucose + 10% FBS | 324 | 318 | 252
RPMI 5 mM glucose + 10% dialyzed FBS | 341 | 307 | 257

cell viability [%]
Settings | NOMO1 [6] | P12-Ichikawa [4] | SEM cells [5]
HPLM + 10% dialyzed FBS, 0.000781 µM | – | 109 | 99.1
HPLM + 10% dialyzed FBS, 0.00234 µM | – | 114 | 97.9
HPLM + 10% dialyzed FBS, 0.00702 µM | – | 119 | 102
HPLM + 10% dialyzed FBS, 0.0211 µM | – | 111 | 101
HPLM + 10% dialyzed FBS, 0.0632 µM | – | 120 | 104
HPLM + 10% dialyzed FBS, 0.19 µM | – | 23.4 | 110
HPLM + 10% dialyzed FBS, 0.569 µM | – | 17.3 | 92.1
HPLM + 10% dialyzed FBS, 1.71 µM | – | 4.64 | 10.6
HPLM + 10% dialyzed FBS, 5.12 µM | – | 4.77 | 8.66
HPLM + 10% dialyzed FBS, 15.4 µM | – | 4.92 | 7.09
HPLM + 10% dialyzed FBS, 46.1 µM | – | 5.05 | 7.14
RPMI 5 mM glucose + 10% FBS, 0.000781 µM | 116 | 112 | 101
RPMI 5 mM glucose + 10% FBS, 0.00234 µM | 119 | 117 | 95.2
RPMI 5 mM glucose + 10% FBS, 0.00702 µM | 133 | 114 | 106
RPMI 5 mM glucose + 10% FBS, 0.0211 µM | 127 | 115 | 107
RPMI 5 mM glucose + 10% FBS, 0.0632 µM | 132 | 123 | 111
RPMI 5 mM glucose + 10% FBS, 0.19 µM | 126 | 126 | 32.4
RPMI 5 mM glucose + 10% FBS, 0.569 µM | 108 | 114 | 24
RPMI 5 mM glucose + 10% FBS, 1.71 µM | 22.7 | 7.71 | 6.74
RPMI 5 mM glucose + 10% FBS, 5.12 µM | 16.6 | 6.13 | 8
RPMI 5 mM glucose + 10% FBS, 15.4 µM | 14.1 | 5.76 | 8.3
RPMI 5 mM glucose + 10% FBS, 46.1 µM | 7.62 | 5.28 | 7.07
RPMI 5 mM glucose + 10% dialyzed FBS, 0.000781 µM | 124 | 102 | 111
RPMI 5 mM glucose + 10% dialyzed FBS, 0.00234 µM | 118 | 112 | 95.2
RPMI 5 mM glucose + 10% dialyzed FBS, 0.00702 µM | 124 | 111 | 104
RPMI 5 mM glucose + 10% dialyzed FBS, 0.0211 µM | 126 | 112 | 103
RPMI 5 mM glucose + 10% dialyzed FBS, 0.0632 µM | 138 | 118 | 105
RPMI 5 mM glucose + 10% dialyzed FBS, 0.19 µM | 125 | 105 | 38.2
RPMI 5 mM glucose + 10% dialyzed FBS, 0.569 µM | 126 | 84.9 | 42.9
RPMI 5 mM glucose + 10% dialyzed FBS, 1.71 µM | 31 | 4.96 | 7.36
RPMI 5 mM glucose + 10% dialyzed FBS, 5.12 µM | 27.8 | 5.14 | 8.19
RPMI 5 mM glucose + 10% dialyzed FBS, 15.4 µM | 24 | 4.91 | 8.02
RPMI 5 mM glucose + 10% dialyzed FBS, 46.1 µM | 9.63 | 4.74 | 7.53
